Key:
IL-6 cytokine = assay: Secreted IL-6 in LPS-treated human primary glial cells (MSD ELISA); assay type: cell-based; conditions: LPS 6 h, then purine derivative 10 μM for 18 h
Procedure: For assessing the cytokine production, human primary glial cells were grown until confluent on coated collagen 12-well plates. Cells were serum-starved in glial serum-free medium for 2 h and treated with LPS for 6 h before treatment with purine derivatives (10 μM) for an additional 18 h. Supernatants were harvested and secreted IL-6 cytokine was measured by ELISA by the mean of the Meso Scale Discovery (MSD) technology. Briefly, a 96-well plate having 1 spot pre-coated with the corresponding antibody is provided by MSD Technology. Before adding the samples, a first saturation step is required. Once the plate is saturated and washed, 25 μL of sample (or calibrators) per well are loaded and incubated for 1 hour. Then the plate is washed and incubated with 25 μL of the Detection Antibody solution (MSD SULFO-TAG) for 1 hour. At the end of the incubation, the plate is washed and then a chemical solution (Read buffer 1×) is added allowing electrochemiluminescence. After a short incubation (5 min) at room temperature, the plate is read on the QUICK Plex SQ120. The instrument measures the intensity of the light electrochemiluminescence.

p-Tau (Thr212) = assay: p-Tau (Thr212)/total Tau in rat cortical neurons (western-blot); assay type: cell-based; conditions: purine derivative 10 μM (A100), 18 h
Procedure: Cells were lysed in freshly prepared lysis buffer containing in mM: Tris-HCl 50, EDTA 2, EGTA 2, NaCl 100, SDS 0.2%, Triton X-100 1%, proteases inhibitors (Roche Protease Inhibitor Cocktail #04693116001), phosphatases inhibitors (in mM: ammonium molybdate 0.1, β-glycerophosphate 20, NaF 50, Na-pyrophosphate 10, Orthovanadate 1). Protein concentration was measured by the Bradford assay and Laemmli buffer was added to each lysate. Proteins (10 μg per lane) were resolved on 12% Nu-PAGE (LifeTechonoliges #NP0342BOX) using MOPS SDS running buffer and transferred on Immobilon-FL PVDF membrane (Millipore #IPFL00010). Membranes were blocked one hour in TBS Tween20 0.1% BSA 5% at room temperature. Primary antibodies were incubated O/N at 4° C. and detected by Alexa 488 conjugated secondary antibodies (Life Techonologies #A11034 and A11029) diluted 1:1.000 in TBS Tween20 0.05% and 1% BSA. The antibodies specific for pThr212-Tau (Abcam #ab4842), pThr181-Tau (AbCam #ab75679), Tau (Millipore #MAB361), APP (Millipore #07-667) and Actin (Millipore #MAB1501) were diluted in TBS Tween20 0.05% and 1% BSA. Fluorescent signal was visualized with the VersaDoc™ Imaging System (Bio-Rad Laboratories) and quantified with Quantity One® Analysis Software. Grey levels measured for bands of interest were normalized to the corresponding actin bands.
For assessing the protein Tau's phosphorylation, the culture media of rat cortical neurons were replaced by incubation medium containing purine derivatives at 10 μM (A100) or vehicle (0.1% DMSO; Control). After 18 h incubation p-Tau (Thr212) and total Tau were quantified in the cellular extracts by western-blot.

SMILES	Anti-inflammatory Compounds (secreted IL-6) (IL-6 cytokine)	Attenuation of P-Tau/Tau ratio (p-Tau (Thr212))
CC[C@H](CO)Nc1nc(N(C)Cc2ccccc2)c2ncn(C(C)C)c2n1 [Aftin-4]	+(>1 μM) (“+” means that the tested compound shows an anti-inflammatory and/or attenuation of Tau's phosphorylation property with a concentration higher than 1 μM)	–
CC[C@H](CO)Nc1nc(N(CC)Cc2ccccc2)c2ncn(C(C)C)c2n1 [Compound 13]	+(>1 μM) (“+” means that the tested compound shows an anti-inflammatory and/or attenuation of Tau's phosphorylation property with a concentration higher than 1 μM)	+(>1 μM) (“+” means that the tested compound shows an anti-inflammatory and/or attenuation of Tau's phosphorylation property with a concentration higher than 1 μM)
CC[C@H](CO)Nc1nc(N(C)Cc2ccccc2)c2ncn(C3CCCC3)c2n1 [Compound 14]	+(>1 μM) (“+” means that the tested compound shows an anti-inflammatory and/or attenuation of Tau's phosphorylation property with a concentration higher than 1 μM)	+(>1 μM) (“+” means that the tested compound shows an anti-inflammatory and/or attenuation of Tau's phosphorylation property with a concentration higher than 1 μM)
CCN(Cc1ccccc1)c1nc(N[C@@H](CO)C(C)C)nc2c1ncn2C1CCCC1 [Compound 15]	+(>1 μM) (“+” means that the tested compound shows an anti-inflammatory and/or attenuation of Tau's phosphorylation property with a concentration higher than 1 μM)	+(>1 μM) (“+” means that the tested compound shows an anti-inflammatory and/or attenuation of Tau's phosphorylation property with a concentration higher than 1 μM)
CCCN(Cc1ccccc1)c1nc(N[C@H](CC)CO)nc2c1ncn2C(C)C [Compound 20]	+(>1 μM) (“+” means that the tested compound shows an anti-inflammatory and/or attenuation of Tau's phosphorylation property with a concentration higher than 1 μM)	+(>1 μM) (“+” means that the tested compound shows an anti-inflammatory and/or attenuation of Tau's phosphorylation property with a concentration higher than 1 μM)
CCN(CC)CCNc1nc(N(CC)Cc2ccccc2)c2ncn(C3CCCC3)c2n1 [Compound 22]	+(>1 μM) (“+” means that the tested compound shows an anti-inflammatory and/or attenuation of Tau's phosphorylation property with a concentration higher than 1 μM)	+(>1 μM) (“+” means that the tested compound shows an anti-inflammatory and/or attenuation of Tau's phosphorylation property with a concentration higher than 1 μM)
CC[C@@H](CO)Nc1nc(N(C)c2ccccc2)c2ncn(C(C)C)c2n1 [Compound 26]	+(>1 μM) (“+” means that the tested compound shows an anti-inflammatory and/or attenuation of Tau's phosphorylation property with a concentration higher than 1 μM)	–
CC[C@H](CO)Nc1nc(OCc2ccccc2)c2ncn(C(C)C)c2n1 [Compound 31]	+(>1 μM) (“+” means that the tested compound shows an anti-inflammatory and/or attenuation of Tau's phosphorylation property with a concentration higher than 1 μM)	+(>1 μM) (“+” means that the tested compound shows an anti-inflammatory and/or attenuation of Tau's phosphorylation property with a concentration higher than 1 μM)
CC[C@H](CO)Nc1nc(NCc2ccccc2)c2ncn(C(C)C)c2n1 [Roscovitine, (R)-roscovitine, reference compound]	+(>1 μM) (“+” means that the tested compound shows an anti-inflammatory and/or attenuation of Tau's phosphorylation property with a concentration higher than 1 μM)	–

Reference: patent US11472807B2, “Purine derivatives for use as medicament and for use in treating neurodegenerative or neuro-inflammatory disorders” (COMMISSARIAT À L'ENERGIE ATOMIQUE ET AUX ENERGIES …, priority 2017, dated 2022)
